Columns and labels:
Format in all cases: in vivo, mouse (C57BL/6J male, 60% HFD DIO)
[1] = Example 2: lean mass by MRI on day 23
Description: (§1) After 5-6-week-old C57BL/6J male mice were acclimatized for 1 week, the weight of each mouse was weighed, and the mice were randomly divided into a control group and a model group by taking the weight as a main index, where 12 mice in the control group were fed with common feed (CD), and the mice in the remaining model group were fed with 60% high-fat feed (60% HFD) for 10-12 weeks to construct a DIO obesity model, with the average body weight being not less than 40 g. The mice fed with 60% HFD were grabbed and acclimatized with a solvent for 3 days, where the acclimatization with a solvent was performed by oral gavage of 0.5% CMC-Na, once daily.
(§2) The food intake, the body weight, the body fat ratio, and the insulin level of the mice were respectively measured, followed by fasting blood glucose level, and the mice were randomly grouped according to Table 12 by taking the body weight as an index, and the remaining ungrouped mice were euthanized. After grouping, each group of mice was administered according to Table 12, the day of administration was defined as DO, and the administration volume of each drug was determined based on the results obtained by the calculation of 5 μL/g× mouse body weight (g).
(§3) For the combined administration group, the administration sequence and the administration time were kept consistent at each administration. The mice were continuously fed with high-fat feed during the administration period until the administration was finished. During administration, 1 food intake was measured per week (difference in feed weights at an interval of 24 h was measured); each group of mice was weighed once daily; blood was collected from the tail tip on day 16 and day 30, respectively, so as to measure fasting blood glucose levels once (blood was collected after fasting from 9:00 am to 3:[…]); on day 24 of administration (D23), the body fat ratio and the lean mass of each group of mice were measured by MRI (the measurement period was kept consistent with that before grouping); after 25 days of administration intervention (day 24), each group of mice was fasted for 6 h and subjected to OGTT (0 min, 15 min, 30 min, 60 min, 90 min, 120 min) to detect their blood glucose levels; after 29 days of administration intervention (day 28), each group of mice was fasted for 6 h and subjected to OGTT (0 min, 15 min, 30 min, 60 min, 90 min, 120 min), and meanwhile subjected to blood sampling via submaxillary vein (0 min, 15 min, 30 min, about 30 μL of blood sampled each time), and then the blood plasma was separated for detecting the insulin level by ELISA, where the separated blood plasma was more than 10 μL; the next day (D30) at the end of administration was set as the test endpoint, and the mice were fasted for 6 h in the morning and subjected to fasting blood glucose level measurement; subsequently, the mice were euthanized with CO2, blood was collected from the heart of each mouse for analysis, and each group of mice was dissected; the liver and subcutaneous, epididymal and mesenteric fat was collected, photographed and weighed, respectively.
The body weight, the lean mass and the lean ratio of each animal in groups G1 to G8 were measured on day 23 and averaged for each group, and the results are shown in Table 16 below, and FIGS. 23 and 24.

[2] = Example 2: body fat mass by MRI on day 23
Description: as §1, §2, §3
The body weight, the body fat mass and the body fat ratio of each animal in groups G1 to G8 were measured on day 23 and averaged for each group, and the results are shown in Table 15 below, and FIGS. 21 and 22.

[3] = Example 2: body weight and body weight change rate, combined administration of HTD1801 and dapagliflozin or empagliflozin in DIO obesity model; details: for Body weight (mean) / Body weight change rate: HTD1801 250 mpk, dapagliflozin 10 mpk, empagliflozin 15 mpk p.o. QD, semaglutide 10 nmol/kg s.c. Q3D
Description: as §1, §2, §3

[4] = mean, day 23, HTD1801 250 mpk, dapagliflozin 10 mpk, empagliflozin 15 mpk p.o. QD

## CCOc1ccc(Cc2cc([C@@H]3O[C@H](CO)[C@@H](O)[C@H](O)[C@H]3O)ccc2Cl)cc1 [Dapagliflozin, dapagliflozin]
[1]; day 23, relative to model control group G2
  lean ratio (in words): slightly decreased
[1]; mean, day 23 (Table 16), HTD1801 250 mpk, dapagliflozin 10 mpk, empagliflozin 15 mpk p.o. QD
  Body weight: 43.8 g
[1]; [4]
  Lean (lean mass): 4.3 g
  Lean ratio: 9.9%
[2]; day 23
  increase of body fat relative to control group G2: about 8.6%
[2]; day 23, relative to control group G2
  body fat mass and body fat ratio (in words): increased
[2]; mean, day 23 (Table 15), HTD1801 250 mpk, dapagliflozin 10 mpk, empagliflozin 15 mpk p.o. QD
  Body weight: 43.8 g
[2]; [4]
  Body fat ratio: 48.8%
  Fat (body fat mass): 21.4 g
[3]; dapagliflozin 10 mpk p.o. QD
  body weight decrease: 3.4%
[3]; day 0 (baseline)
  Body weight (mean): 45.4 g
  Body weight change rate: 0.0%
[3]; day 1
  Body weight (mean): 45.5 g
  Body weight change rate: 0.3%
[3]; day 2
  Body weight (mean): 45.3 g
  Body weight change rate: −0.1%
[3]; day 3
  Body weight (mean): 45.1 g
  Body weight change rate: −0.6%
[3]; day 4
  Body weight (mean): 44.8 g
  Body weight change rate: −1.2%
[3]; day 5
  Body weight (mean): 44.3 g
  Body weight change rate: −2.4%
[3]; day 6
  Body weight (mean): 44.1 g
  Body weight change rate: −2.7%
[3]; day 7
  Body weight (mean): 44.0 g
  Body weight change rate: −2.9%
[3]; day 8
  Body weight (mean): 43.7 g
  Body weight change rate: −3.7%
[3]; day 9
  Body weight (mean): 43.4 g
  Body weight change rate: −4.4%
[3]; day 10
  Body weight (mean): 43.5 g
  Body weight change rate: −4.2%
[3]; day 11
  Body weight (mean): 43.2 g
  Body weight change rate: −4.7%
[3]; day 12
  Body weight (mean): 43.1 g
  Body weight change rate: −4.9%
[3]; day 13
  Body weight (mean): 42.6 g
  Body weight change rate: −6.1%
[3]; day 14
  Body weight (mean): 42.7 g
  Body weight change rate: −6.0%
[3]; day 15
  Body weight (mean): 42.9 g
  Body weight change rate: −5.5%
[3]; day 16
  Body weight (mean): 42.8 g
  Body weight change rate: −5.7%
[3]; day 17
  Body weight (mean): 43.2 g
  Body weight change rate: −4.7%
[3]; day 18
  Body weight (mean): 43.3 g
  Body weight change rate: −4.5%
[3]; day 19
  Body weight (mean): 43.5 g
  Body weight change rate: −4.2%
[3]; day 20
  Body weight (mean): 43.5 g
  Body weight change rate: −4.1%
[3]; day 21
  Body weight (mean): 43.9 g
  Body weight change rate: −3.3%
[3]; day 22
  Body weight (mean): 43.9 g
  Body weight change rate: −3.3%
[3]; day 23
  Body weight (mean): 43.8 g
  Body weight change rate: −3.5%
[3]; day 24
  Body weight (mean): 43.5 g
  Body weight change rate: −4.2%
[3]; day 25
  Body weight (mean): 43.9 g
  Body weight change rate: −3.2%
[3]; day 26
  Body weight (mean): 44.2 g
  Body weight change rate: −2.5%
[3]; day 27
  Body weight (mean): 44.3 g
  Body weight change rate: −2.4%
[3]; day 28
  Body weight (mean): 43.9 g
  Body weight change rate: −3.2%
[3]; day 29
  Body weight (mean): 43.8 g
  Body weight change rate: −3.4%
